Data: patent US8378085B2, “Bacterial ATP synthase binding domain” (priority 2004, dated 2013)

system: M. tuberculosis strains resistant to J; type: cell-based, Mycobacterium tuberculosis

Row | SMILES | sensitivity of M. tuberculosis strains resistant to J to the anti-TB agent
1 | NCC[C@H](O)C(=O)N[C@@H]1C[C@H](N)[C@@H](O[C@H]2O[C@H](CN)[C@@H](O)[C@H](O)[C@H]2O)[C@H](O)[C@H]1O[C@H]1O[C@H](CO)[C@@H](O)[C@H](N)[C@H]1O [amikacin] | unchanged
2 | CC[C@@H](CO)NCCN[C@@H](CC)CO [ethambutol] | unchanged
3 | NNC(=O)c1ccncc1 [isoniazid] | unchanged
4 | CO[C@H]1/C=C/O[C@@]2(C)Oc3c(C)c(O)c4c(O)c(c(/C=N/N5CCN(C)CC5)c(O)c4c3C2=O)NC(=O)/C(C)=C\C=C\[C@H](C)[C@H](O)[C@@H](C)[C@@H](O)[C@@H](C)[C@H](OC(C)=O)[C@@H]1C [rifampin] | unchanged
5 | [H]/N=C(/N)N[C@H]1[C@H](O)[C@@H](O)[C@H](O[C@@H]2O[C@@H](C)[C@](O)(C=O)[C@H]2O[C@@H]2O[C@@H](CO)[C@H](O)[C@@H](O)[C@@H]2NC)[C@@H](N/C(N)=N\[H])[C@@H]1O [streptomycin] | unchanged

system: DARQ J mutant M. tuberculosis; type: cell-based, Mycobacterium tuberculosis

Row | SMILES | effect on ATP production (total cellular ATP)
6 | C(=NC1CCCCC1)=NC1CCCCC1 [DCCD, reference compound] | able to block the ATP production
7 | COc1nc2ccc(Br)cc2cc1[C@@H](c1ccccc1)[C@@](O)(CCN(C)C)c1cccc2ccccc12 [J] | did not show any decrease
